The assay concerns HUVEC cells. Briefly: modified Boyden's chamber cell migration assay. It counts as cell-based, human. Particulars: toward 5% FBS, 6 h; other peptides 10 μM. How it is done: HUVEC cell migration was assessed using a modified Boyden's chamber assay, i.e., in Transwell cell culture chambers (Corning Life Sciences, Acton, Mass.). Briefly, polycarbonate filters with 8 μm pores were used to separate the upper and the lower chambers. Cells were added to the upper compartment at a density of 10,000 cells/100 μl in serum-free medium containing 0.5% BSA and incubated for 6 h. Directional migration (chemotaxis) in the lower chamber was induced by addition of medium containing 5% FBS to the lower chamber. Where indicated parstatin or other peptides were added to lower chamber.
Cells on the filters were fixed and stained. The non-migrated cells (cells in upper surface) were removed by wiping with cotton swabs. The cells on the lower surface were counted manually under microscope in six predetermined fields. Parstatin (1-41) attenuated chemotactic cell migration through microporous membrane in response to serum (FIG. 3C). When human parstatin was combined with 5% FBS, the number of migrated cells was reduced in concentration-dependent manner.

“TRARRPESKATNATLDPR (listed as Homo sapiens) [parstatin (24-41), 24-41 (18 amino acids) of human parstatin, hydrophilic fragment]”: the chemotactic cell migration entry is “without effect”.
